We go through 80 compounds from the METLIN SMRT retention time set (Domingo-Almenara et al. 2019).

The data set can be described thus: gradient 5% acetonitrile 3 min, to 50% in 2 min, to 85% in 15 min, held 3 min, 100 µL/min. Particulars: column: Zorbax Extend-C18 2.1 x 50 mm; eluents: water / acetonitrile, 0.1% formic acid. An outline of the steps: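 Each retention time is based on an adduct peak selected computationally and verified by manual inspection. Measurements used HPLC–quadrupole time-of-flight mass spectrometry in positive and negative ionization mode on mixtures of ~100 pure standards. Chromatography ran on a Zorbax Extend-C18 column (2.1 × 50 mm, 1.8 μm) at 100 μL/min with water and acetonitrile, each containing 0.1% formic acid, and dead and dwell volumes of 40 μL and 900 μL.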
For the compound `Cc1noc(C)c1-c1ccc(S(=O)(=O)NCc2ccc3c(c2)OCO3)cc1`, the RP-LC retention time worked out at 894 s.
Consider `CC(C)OCCCNC(=O)c1cc2n(n1)CCCN(Cc1ccc(Cl)cc1)C2=O`, for which the RP-LC retention time is 855 s.
Then `COc1ccc(-c2cn3c(CC(=O)NCCc4cccs4)csc3n2)cc1OC`, with 692 s; and `COc1ccc(OC)c(CNC(=O)C2CCCN(c3ccc(=O)n(-c4ccc(C)c(Cl)c4)n3)C2)c1` (stereo not given), with 924 s; and `O=C(Nc1nc(-c2cccc3ccccc23)cs1)C1CCCO1` (stereo not given), with 978 s.
The figure for `Cc1oc(-c2[nH]ncc2C(=O)N2CCCC2)cc1S(=O)(=O)N1CCOCC1` is 619 s; for `CC(Oc1ccccc1Cl)C(=O)Nc1ccnn1Cc1cccs1` (stereo not given) it is 913 s.
Compound `Cc1cc(C)n(Cc2nc(-c3ccc(NC(=O)c4ccsc4)cc3)oc2C)n1` returned an RP-LC retention time of 940 s.
In turn, `O=C(Cc1c(F)cccc1Cl)N1CCN(Cc2ccsc2)CC1` registered an RP-LC retention time of 570 s.
Then `CCCNC(=O)N(C1CCOCC1)C1CCN(C(=O)c2cccs2)CC1`, with 657 s; and `O=C(Cc1csc2nc(-c3cccc(Br)c3)cn12)NCCC1=CCCCC1`, with 1050 s.
`Cc1cccc(-c2nc(N3CCCC3)ncc2C(=O)O)c1` returned an RP-LC retention time of 819 s.
Consider `COc1cccc(NS(=O)(=O)c2cc3n(c2)CCN(C(C)C)C3=O)c1`, for which the RP-LC retention time is 733 s.
Then `CO[C@H]1CN(C(C)C)[C@H]1C1CCN(C(=O)C2CCC2)CC1`, with 574 s; and `COC(=O)c1ccccc1Nc1c(-c2ccccc2)nc2cnc(Br)cn12`, with 1090 s.
Then `CC(C)NC(=O)c1ccc(-c2ccc(Cl)cc2)o1`, with 874 s; and `COC(=O)c1c[n+]([O-])ccc1OC`, with 603 s.
`COc1ccc(Cl)cc1NS(=O)(=O)c1ccc2c(c1)CCCC(=O)N2` displayed an RP-LC retention time of 765 s.
The figure for `Cc1ccccc1OCC(=O)N1C[C@@H]2C[C@H](NC(=O)c3ccccc3)[C@H]1C2` is 813 s; for `CCCn1c(C2CCN(C(=O)Nc3ccc(C)cc3)CC2)cc(=O)n2nccc12` it is 653 s.
`Cc1ccccc1N1C[C@@]23C=C[C@@H](O2)[C@H](C(=O)OC(C)C)[C@@H]3C1=O` returned an RP-LC retention time of 785 s.
In turn, `Cc1nn(-c2ccc(N3CCCC3)nn2)c(C)c1CCC(=O)N1CCN(c2ccccn2)CC1` gave an RP-LC retention time of 546 s.
`COc1ccc(-c2n[nH]c3c2C(c2cccc(O)c2)N(C)C3=O)cc1` (stereo not given) gave an RP-LC retention time of 686 s.
Regarding `CN(C)[C@@H]1CN(C(=O)c2n[nH]c3ccccc23)C[C@H]1CO`, the RP-LC retention time was 552 s.
As to `Cc1ccc(-n2ccnc(NC(=O)Nc3ccc(F)cc3)c2=O)cc1C`, the RP-LC retention time amounted to 1030 s.
Then `Cc1oc(-c2[nH]ncc2C(=O)N2CCCC2)cc1S(=O)(=O)NCc1ccccc1`, with 700 s; and `CCCCCn1c(=O)c2ccccc2n(Cc2nc(-c3cccc(OCC)c3)no2)c1=O`, with 1350 s.
For the compound `NS(=O)(=O)c1ccc(NC(=O)C2Cc3ccccc3C(=O)O2)cc1` (stereo not given), the RP-LC retention time is 684 s.
The figure for `Cc1ccc(C2CC(=O)N(c3ccc(F)c(F)c3)C(=O)C2)cc1` is 997 s.
`COC(=O)c1ccc(NC(=O)NCc2noc3ccc(C)cc23)cc1` yielded an RP-LC retention time of 868 s.
In turn, `CCN(CC)c1ccc(-c2noc(CN3CCC4(CC3)OCCO4)n2)cn1` returned an RP-LC retention time of 579 s.
For `CCN1C(=O)c2cc(S(=O)(=O)Nc3cc(C)cc(C)c3)ccc2Oc2cccnc21`, the RP-LC retention time is 1080 s.
Then `Cc1noc([C@@H]2CC(F)(F)CN2S(=O)(=O)c2ccc(F)cc2)n1`, with 884 s; and `COC(=O)c1ccc2c(=O)n(-c3cc(C)cc(C)c3)c(N3CCOCC3)nc2c1`, with 1040 s.
Consider `CCN(CC)Cc1nc(-c2ccc(N3CCSCC3)nc2)no1`, for which the RP-LC retention time turned out to be 632 s.
`O=S(=O)(c1cc(-c2nnc(C3CCCC3)o2)co1)N1CCCCCC1` came in with an RP-LC retention time of 1050 s.
The compound `COc1cc2ncnc(Nc3cccc(Cl)c3)c2cc1OC` registered an RP-LC retention time of 750 s.
As to `COc1cc2c(cc1CNC(=O)COc1ccc(Cl)c(C)c1)OCCCO2`, the RP-LC retention time was 1010 s.
Compound `CC1(C(=O)Nc2ccccc2)Oc2cccnc2NC1=O` (stereo not given) came in with an RP-LC retention time of 655 s.
Then `Cc1nn(CC(=O)NCc2ccc(F)cc2F)c(=O)c2nc(-c3ccccc3)sc12`, with 914 s.
`CCOc1ccccc1NC(=O)CSc1ccc(N2CCCC(C(=O)NC3CC3)C2)nn1` (stereo not given) had an RP-LC retention time of 705 s.
Then `CCOC(=O)c1[nH]c(C)c(C(=O)C(C)N(C(=O)c2ccc(F)cc2)C2CC2)c1C` (stereo not given), with 890 s; and `COC(=O)c1sccc1NC(=O)N1CCCC1c1cccc(C)c1` (stereo not given), with 1120 s.
Regarding `Cc1ccc(-c2nc3cccnc3n2C2CCN(S(=O)(=O)c3cccnc3)C2)cc1` (stereo not given), the RP-LC retention time was 728 s.
For `CCn1c(=O)c(N2CCC(NC(=O)NCc3ccc(F)cc3)CC2)nc2cccnc21`, the RP-LC retention time was 850 s.
The compound `CCOC(=O)c1c(C)[nH]c(C(=O)N2CCC(CC(=O)NCc3ccccc3)CC2)c1C` showed an RP-LC retention time of 762 s.
Regarding `Cc1nc(-c2ccccc2)sc1C(=O)Nc1nc(-c2ccccc2Cl)cs1`, the RP-LC retention time is 1310 s.
`Cc1ccc(C)c(C(=O)N2CCC(COc3ccc(C(=O)NC(C)C)cc3)CC2)c1` showed an RP-LC retention time of 912 s.
For the compound `COc1ccc(OC)c(S(=O)(=O)Nc2ccc3c(c2)CCC(=O)N3C)c1`, the RP-LC retention time was 675 s.
The compound `Cc1nc(-c2csc(S(=O)(=O)N3CCC(C(=O)Nc4ccccc4)CC3)c2)no1` registered an RP-LC retention time of 878 s.
Take `CCNC(=O)Nc1ccc2c(c1)CN(Cc1ccc(F)cc1F)CCO2`: the RP-LC retention time worked out at 611 s.
As for `Cc1csc(NC(=O)C2CCN(S(=O)(=O)c3cc(-c4noc(C)n4)cs3)CC2)n1`, the RP-LC retention time is 829 s.
Then `COc1cc(-c2nc(C3CC(=O)N(c4ccc(F)cc4)C3)no2)cc(OC)c1OC` (stereo not given), with 901 s; and `CC(NC(=O)c1ccccc1)c1nc(-c2ccc3oc(-c4ccccc4)nc3c2)no1` (stereo not given), with 1090 s; and `CC(=O)N1CCC2(CC1)CC(CC(=O)O)CCO2` (stereo not given), with 588 s.
The figure for `Cc1nn(C)c(C)c1C(=O)N1CCC2(CCC2O)CC1` (stereo not given) is 600 s; for `CCCNC(=O)C1CCN(c2ccc(SCC(=O)N(C)c3ccccc3)nn2)CC1` it is 627 s.
The figure for `Cc1cnc(C)n1CC1CCN(S(=O)(=O)Cc2ccccc2)C1` (stereo not given) is 618 s.
In the case of `O=C1CC(c2noc(Cc3ccc(F)cc3)n2)CN1c1ccc(F)c(Cl)c1` (stereo not given), the RP-LC retention time was 1040 s.
In turn, `CCCCn1cc(S(=O)(=O)Nc2ccc(CC)cc2)c2cccnc21` came in with an RP-LC retention time of 1040 s.
Compound `COc1cccc(CNC(=O)c2nnc(-c3ccc(S(=O)(=O)N4CCOCC4)cc3)o2)c1` yielded an RP-LC retention time of 822 s.
As to `CCN1C(=O)C2(CCN(S(=O)(=O)c3ccc(OC)c(Cl)c3)CC2)c2ccccc21`, the RP-LC retention time came out at 1080 s.
`COc1ccccc1-c1noc(-c2nc(C)no2)n1`: the RP-LC retention time was 877 s.
Compound `OC[C@H]1O[C@@H](n2cnc3c(NC4CCCC4)ncnc32)C(O)[C@H]1O` (stereo not given in full) gave an RP-LC retention time of 630 s.
Take `Cc1cc2c(cc1S(=O)(=O)N1CCCC1C(=O)NCC(C)c1ccccc1)OCC(=O)N2` (stereo not given): the RP-LC retention time was found to be 799 s.
`COc1ccc(Cl)cc1-c1nc(-c2ccc3oc(C)nc3c2)no1` yielded an RP-LC retention time of 1060 s.
In the case of `O=C(Nc1ccc2c(c1)OCCO2)c1cc(-c2ccncc2)n[nH]1`, the RP-LC retention time came out at 606 s.
Then `COc1ccc(-c2cc3c(=O)n(Cc4nc(-c5ccc(OC)cc5OC)oc4C)ccn3n2)cc1`, with 1020 s; and `COc1ccc(S(=O)(=O)N2CCCC(C(=O)NC3CC3)C2)cc1OC` (stereo not given), with 702 s; and `CC1(C)SC2C(NC(=O)[C@H](NC(=O)N3CCNC3=O)c3ccccc3)C(=O)N2C1C(=O)O` (stereo not given in full), with 709 s.
Take `COCCO[C@H]1C(=O)N(C2CCN(S(=O)(=O)C(C)C)CC2)[C@H]1c1ccncc1`: the RP-LC retention time was found to be 572 s.
The figure for `Oc1ccc([C@@H]2Oc3ccc(O)cc3[C@@H]3CCC[C@@H]32)cc1` is 866 s.
Then `O=C(C1CCC1)N1CCCCCC1CN1CCOCC1` (stereo not given), with 595 s.
For the compound `O=C(CN1CCC(c2nc(-c3ccc(F)cc3)no2)CC1)Nc1ccc2c(c1)OCO2`, the RP-LC retention time was found to be 720 s.
Compound `CCn1ccc(C(=O)N2CCN(c3nnc4ccc(Cl)cn34)CC2)n1` came in with an RP-LC retention time of 562 s.
Then `Fc1ccccc1-c1noc(NC2CCCC2)n1`, with 929 s; and `Cc1ccc(C)c(NC(=O)Cn2c(C)cc(-c3nnc(C)o3)c2C)c1`, with 796 s.
For the compound `CCc1ccc(N2C(=O)CN(S(C)(=O)=O)CC2(C)C(=O)NC2CCCCCCC2)cc1` (stereo not given), the RP-LC retention time came out at 1000 s.
Compound `O=C(Nc1ccc2c(c1)OCO2)N1CCN(c2nc3ccccc3n(Cc3ccccc3)c2=O)CC1` yielded an RP-LC retention time of 1010 s.
The figure for `Cc1ccc(-c2nnc(-c3ccc(Cl)c(S(=O)(=O)N4CCCCC4)c3)o2)cc1` is 1250 s.
